Test [1] concerns the target T1, human blood platelet PDE5 (Homo sapiens, UniProt O76074).
T1 construct: obtained by suitably treating various tissues and separating the enzyme with FPLC; from tissue; host or cells: human blood platelets
Put plainly: PDE5 enzyme inhibition activity test (scintillation proximity). Type of test: biochemical. The protocol:
(§1) More specifically, PDE5 and PDE3 were obtained from human blood platelet, and PDE6 was separated from bovine retina. Upon enzyme was separated out, the enzyme inhibition activity test would be carried out immediately. The said enzyme inhibition activity test was performed by directly detecting the scintillation proximity of AMP/GMP using TRKQ7100 and TRKQ7090 kits, which was generally as follows. In the presence of different concentrations of inhibitor and a small amount of substrate, 10 μl of buffer (50 mM Tris/HCl PH 7.5, 8.3 mM MgCl2, 1.7 mM EGTA) was added, and then water was added to a final volume of 100 μl. The reaction was initiated with a fixed amount of enzyme, incubated at 30° C. for 30 min, and then quenched with 50 μl of yttrium silicate beads comprising zinc sulphate. After shaken for 20 min, the reaction mixture was put in dark and settled for 30 min, and then readed on a BECKMAN LS6500 MULTI-PURPOSE SCINTILLATION COUNTER.
In general terms: In a scintillation proximity assay essentially only radioactivity close to the scintillant gives light.

The next test concerns the target T2, PDE6 in bovine retina (Bos taurus, UniProt P11541+P23439).
T2 construct: obtained by suitably treating various tissues and separating the enzyme with FPLC; from tissue; host or cells: bovine retina
T2 sequence (P11541 2-856 limits assumed): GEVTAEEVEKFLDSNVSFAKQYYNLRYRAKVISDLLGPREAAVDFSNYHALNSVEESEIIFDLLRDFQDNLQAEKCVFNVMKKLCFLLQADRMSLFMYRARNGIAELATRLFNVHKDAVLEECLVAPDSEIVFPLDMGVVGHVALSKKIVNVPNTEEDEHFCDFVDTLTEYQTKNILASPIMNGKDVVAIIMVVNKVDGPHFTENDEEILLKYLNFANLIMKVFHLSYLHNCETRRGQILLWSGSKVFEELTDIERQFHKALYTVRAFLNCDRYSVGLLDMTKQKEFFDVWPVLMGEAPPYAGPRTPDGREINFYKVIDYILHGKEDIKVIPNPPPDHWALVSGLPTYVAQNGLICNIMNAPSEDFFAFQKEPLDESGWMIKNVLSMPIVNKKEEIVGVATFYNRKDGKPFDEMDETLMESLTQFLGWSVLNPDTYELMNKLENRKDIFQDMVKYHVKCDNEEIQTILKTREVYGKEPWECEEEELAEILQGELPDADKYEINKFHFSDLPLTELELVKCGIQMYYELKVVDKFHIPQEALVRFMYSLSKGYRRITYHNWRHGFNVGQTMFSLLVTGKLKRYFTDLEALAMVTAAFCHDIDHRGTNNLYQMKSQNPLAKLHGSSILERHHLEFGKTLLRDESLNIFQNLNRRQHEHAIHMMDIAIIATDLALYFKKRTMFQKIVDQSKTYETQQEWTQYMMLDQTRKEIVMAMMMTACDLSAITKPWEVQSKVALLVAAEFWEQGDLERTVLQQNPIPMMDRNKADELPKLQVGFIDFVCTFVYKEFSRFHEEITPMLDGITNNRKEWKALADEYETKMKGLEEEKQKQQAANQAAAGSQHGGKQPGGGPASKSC
T2 sequence (P23439 2-850 limits assumed): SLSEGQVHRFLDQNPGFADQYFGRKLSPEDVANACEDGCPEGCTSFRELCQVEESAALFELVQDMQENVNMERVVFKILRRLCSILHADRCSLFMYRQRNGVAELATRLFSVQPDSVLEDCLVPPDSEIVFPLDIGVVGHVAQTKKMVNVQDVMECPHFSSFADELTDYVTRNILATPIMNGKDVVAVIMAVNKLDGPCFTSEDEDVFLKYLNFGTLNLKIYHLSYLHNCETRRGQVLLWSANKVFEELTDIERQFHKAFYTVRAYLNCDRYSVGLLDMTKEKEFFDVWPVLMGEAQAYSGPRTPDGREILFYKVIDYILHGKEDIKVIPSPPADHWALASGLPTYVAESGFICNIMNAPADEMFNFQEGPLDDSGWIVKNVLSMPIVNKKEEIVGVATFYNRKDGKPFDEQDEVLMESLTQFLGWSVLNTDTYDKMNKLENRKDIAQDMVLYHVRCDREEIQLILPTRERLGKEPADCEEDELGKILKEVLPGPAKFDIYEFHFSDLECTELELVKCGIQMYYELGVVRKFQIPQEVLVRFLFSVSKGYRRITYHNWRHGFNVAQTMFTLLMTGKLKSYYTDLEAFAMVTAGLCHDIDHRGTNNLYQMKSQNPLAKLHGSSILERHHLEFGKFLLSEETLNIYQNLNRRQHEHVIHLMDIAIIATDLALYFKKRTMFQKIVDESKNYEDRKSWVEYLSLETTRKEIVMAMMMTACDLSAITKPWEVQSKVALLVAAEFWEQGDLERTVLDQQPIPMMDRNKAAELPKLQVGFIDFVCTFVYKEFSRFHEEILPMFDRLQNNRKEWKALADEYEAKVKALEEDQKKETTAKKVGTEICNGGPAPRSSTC
Put plainly: PDE6 enzyme inhibition activity test (scintillation proximity). The conditions noted are these: for IC50: PDE6 separated from bovine retina, read-out: PDE6 IC50; for PDE6 IC50/PDE5 IC50: selectivity, ratio of IC50 PDE6/IC50 PDE5. The test is classed as biochemical. The protocol: as §1

The IC50 is the midpoint of a concentration-inhibition curve.

Consider `CCCOc1ccc(S(=O)(=O)NCCN2CCOCC2)cc1-c1nc(CC)c(CC)c(=O)[nH]1` [Example 31, 5,6-diethyl-2-{2-n-propoxy-5-[N-(2-morpholinylethyl)aminosulfonyl)phenyl}pyrimid-4(3H)-one], for which the IC50 in test [1] (PDE5 table) was found to be 1.36 nM; in test [1] (as repeated in the PDE6 table) it was 1.36 nM; on PDE6 in bovine retina, 52.8 nM. Also, at PDE6 in bovine retina, the “PDE6 IC50/PDE5 IC50” value came out at 38.8.
Take `CCCOc1ccc(S(=O)(=O)N2CCCC2C(=O)O)cc1-c1nc(CC)c(CC)c(=O)[nH]1` (stereo not shown) [Example 32]: the IC50 in test [1] (PDE5 table) was found to be 2.02 nM; in test [1] (as repeated in the PDE6 table) it was 2.02 nM; at PDE6 in bovine retina it was 40.6 nM. Besides, the “PDE6 IC50/PDE5 IC50” value at PDE6 in bovine retina amounted to 20.1.
In the case of `CCCOc1ccc(NC(=S)NCC)cc1-c1nc(CC)c(CC)c(=O)[nH]1` [Example 43, 1-(3-(4,5-Diethyl-1,6-dihydro-6-oxopyrimidin-2-yl)-4-n-propoxyphenyl)-3-ethylthiourea], the IC50 in test [1] (PDE5 table) was 3.72 nM; in test [1] (as repeated in the PDE6 table), 3.72 nM; at PDE6 in bovine retina, 42.8 nM. In addition, at PDE6 in bovine retina, the “PDE6 IC50/PDE5 IC50” value was determined as 11.5.
With `CCCOc1ccc(N/C(=N/CC)N(CC)CC)cc1-c1nc(CC)c(CC)c(=O)[nH]1` [Example 46, N-[3-(4,5-diethyl-1,6-dihydro-6-oxopyrimidin-2-yl)-4-n-propoxyphenyl]-N′,N″-triethylguanidine], the IC50 in test [1] (PDE5 table) amounted to 1.09 nM; in test [1] (as repeated in the PDE6 table), 1.09 nM; on PDE6 in bovine retina, 642 nM. Also, the “PDE6 IC50/PDE5 IC50” value on PDE6 in bovine retina is recorded as 589.0.
On to `CCCOc1ccc(NC(=O)N2CCCC2)cc1-c1nc(CC)c(CC)c(=O)[nH]1` [Example 49], for which the IC50 in test [1] (PDE5 table) came out at 1.86 nM; in test [1] (as repeated in the PDE6 table) it was 1.86 nM; at PDE6 in bovine retina it was 620 nM. Moreover, the “PDE6 IC50/PDE5 IC50” value at PDE6 in bovine retina is on record as 10.5.
Molecule `CCCOc1ccc(-c2nc(CC)c(CC)c(=O)[nH]2)cc1-c1nc(CC)c(CC)c(=O)[nH]1` [Example 87, 2,2′-(4-n-Propoxy-1,3-phenylene)bis(5,6-diethylpyrimid-4(3H)-one)] registered an IC50 in test [1] (PDE5 table) of 3.29 nM.
The same measure, in the same setting: the figure for `CCCOc1ccc(S(=O)(=O)NC(CCCNC(N)=O)C(=O)O)cc1-c1nc(CC)c(CC)c(=O)[nH]1` (stereo not shown) [Example 118, 2-(N-(3-(4,5-diethyl-1,6-dihydro-6-oxopyrimidin-2-y1)-4-n-propoxyphenyl)sulfonyl)amino-5-ureavaleric acid] is 0.76 nM; for `CCCOc1ccc(S(=O)(=O)NC(CCCN)C(=O)O)cc1-c1nc(CC)c(CC)c(=O)[nH]1` (stereo not shown) [Example 119, 2-(N-(3-(4,5-diethyl-1,6-dihydro-6-oxopyrimidin-2-yl)-4-n-propoxyphenyl)sulfonyl)amino-5-aminovaleric acid] it is 6.31 nM; for `CCCOc1ccc(C(=O)NC(CCCNC(=N)N)C(=O)O)cc1-c1nc(CC)c(CC)c(=O)[nH]1` (stereo not shown) [Example 149, 2-(3-(4,5-diethyl-1,6-dihydro-6-oxopyrimidin-2-yl)-4-n-propoxybenzamido)-5-guanidylvaleric acid] it is 1.8 nM.
In the case of `CCCOc1ccc(C(=O)NC(C)C(=O)OC)cc1-c1nc(CC)c(CC)c(=O)[nH]1` (stereo not shown) [Example 151, methyl 2-(3-(4,5-diethyl-1,6-dihydro-6-oxopyrimidin-2-yl)-4-n-propoxybenzamido)propionate], in test [1] (PDE5 table), the IC50 came to 0.54 nM.
On the same count and under the same terms, the figure for `CCCOc1ccc(C(=O)NC(C)C(N)=O)cc1-c1nc(CC)c(CC)c(=O)[nH]1` (stereo not shown) [Example 155, N-(1-aminoformylethyl)-3-(4,5-diethyl-1,6-dihydro-6-oxopyrimidin-2-yl)-4-n-propoxybenzamide] is 0.54 nM.
In the case of `CCCOc1ccc(NC(=O)CN2CCN(C)CC2)cc1-c1nc(CC)c(CC)c(=O)[nH]1` [Example 179, N-(3-(4,5-diethyl-1,6-dihydro-6-oxopyrimidin-2-yl)-4-n-propoxyphenyl)-2-(4-methylpiperazin-1-yl)acetamide], at PDE6 in bovine retina, the IC50 is 22.2 nM.
Take `CCCOc1ccc(S(=O)(=O)NC2C(O)OC(CO)C(O)C2O)cc1-c1nc(CC)c(CC)c(=O)[nH]1` (stereo not shown) [Example 208, 5,6-Diethyl-2-(2-n-propoxy-5-((tetrahydro-2,4,5-trihydroxy-6-(hydroxymethyl)-2H-pyran-3-ylamino)sulfonyl)phenyl]pyrimid-4(3H)-one]: in test [1] (PDE5 table), the IC50 was determined as 3.69 nM.
Still for that read-out and setting: to `CCCOc1ccc(C(=O)NC(CCCNC(N)=O)C(=O)O)cc1-c1nc(CC)c(CC)c(=O)[nH]1` (stereo not shown) [Example 209, 2-(3-(4,5-diethyl-1,6-dihydro-6-oxopyrimidin-2-yl)-4-n-propoxybenzamido)-5-ureavaleric acid] belongs 0.64 nM.
The same measure, in the same setting: to `CCCOc1ccc(C(=O)NC(CCCN)C(=O)O)cc1-c1nc(CC)c(CC)c(=O)[nH]1` (stereo not shown) [Example 210, 2-(3-(4,5-diethyl-1,6-dihydro-6-oxopyrimidin-2-yl)-4-n-propoxybenzamido)-5-aminovaleric acid] belongs 6.23 nM.
The same measure, in the same setting: to `CCCOc1ccc(C(=O)NC2C(O)OC(CO)C(O)C2O)cc1-c1nc(CC)c(CC)c(=O)[nH]1` (stereo not shown) [Example 211] belongs 0.9 nM; to `CCCOc1ccc(C(=O)NCCS(N)(=O)=O)cc1-c1nc(CC)c(CC)c(=O)[nH]1` [Example 212, 2-(3-(4,5-diethyl-1,6-dihydro-6-oxopyrimidin-2-yl)-4-n-propoxybenzamido)ethylsulphonamide], 0.79 nM; to `CCCOc1ccc(C(=O)NCCS(=O)(=O)N2CCN(C)CC2)cc1-c1nc(CC)c(CC)c(=O)[nH]1` [Example 213, 3-(4,5-diethyl-1,6-dihydro-6-oxopyrimidin-2-yl)-N-(4-methyl-1-piperazinylsulfonylethyl)-4-n-propoxybenzamide], 2.8 nM.
`CCCOc1ccc(C(=O)NCCS(=O)(=O)N(CC)CC)cc1-c1nc(CC)c(CC)c(=O)[nH]1` [Example 214, 3-(4,5-diethyl-1,6-dihydro-6-oxopyrimidin-2-yl)-N-(N,N-diethylaminosulfonylethyl)-4-n-propoxybenzamide]: in test [1] (PDE5 table), the IC50 worked out at 1.8 nM.
Still for that read-out and setting: the figure for `CCCOc1ccc(C(=O)NCCCS(N)(=O)=O)cc1-c1nc(CC)c(CC)c(=O)[nH]1` [Example 215, 3-(3-(4,5-diethyl-1,6-dihydro-6-oxopyrimidin-2-yl)-4-n-propoxybenzamido)propylsulphonamide] is 0.88 nM; for `CCCOc1ccc(C(=O)NCCCS(=O)(=O)N2CCN(C)CC2)cc1-c1nc(CC)c(CC)c(=O)[nH]1` [Example 216, 3-(4,5-diethyl-1,6-dihydro-6-oxopyrimidin-2-yl)-N-(4-methyl-1-piperazinylsulfonylpropyl)-4-n-propoxybenzamide] it is 0.83 nM.
Consider `CCCOc1ccc(C2OC(CO)C(O)C(O)C2O)cc1-c1nc(CC)c(CC)c(=O)[nH]1` (stereo not shown) [Example 218, 5,6-Diethyl-2-(5-(tetrahydro-3,4,5-trihydroxy-6-(hydroxymethyl)-2H-pyran-2-yl)-2-n-propoxyphenyl)pyrimid-4(3H)-one], for which the IC50 in test [1] (PDE5 table) is 8.63 nM.
